Data as given in patent US10238713B2, “Cyclic tetrapeptides and therapeutic applications thereof” (LODZ UNIVERSITY OF TECHNOLOGY, priority 2010, dated 2019).
Non-standard residues stand in square brackets, D forms with d. Residues, ends and D or L forms follow the SMILES beside them. β3hF = N[C@H](CC(=O)O)Cc1ccccc1

Key:
[1] = system: CBA mice, humoral immune response to sheep erythrocytes; experiment: Primary humoral immune response to SRBC in vivo (antibody-forming cells in spleen); conditions: 10 or 100 μg, intraperitoneal, 2 h after immunization, measured after 4 days; FIG. 6
Method: CBA female mice, 8-12 weeks old, were delivered by The Institute of Laboratory Medicine, Lodz, Poland. The mice had free access to water and pelleted food. The local ethics committee approved the study. Sheep erythrocytes (SRBC) were delivered by Wroclaw University of Life and Environmental Sciences, Poland, and maintained on RPMI-1640 medium.
Mice were immunized with 0.2 ml of 5% SRBC suspension (0.5 ml of SRBC pellet re-suspended to a volume of 10 ml of 0.9% NaCl), intraperitonelly. After 4 days the number of antibody-forming cells (AFC) in the spleens was determined using an assay of local hemolysis in agar gel (per Mishell et al., J Exp Med, 1967, 126, 423-442). The results are presented in FIG. 6 as a mean value of 5 mice ±standard error and expressed as AFC number per 10^6 of viable splenocytes.
Mice were immunized with SRBC as described above and after 2 h were given 10 or 100 μg of the compound of formula I-A. Cyclosporin A (CsA) served as a reference drug. The number of antibody-forming cells to SRBC was measured after 4 days.

[2] = system: BALB/c mice, contact sensitivity to oxazolone; experiment: Contact sensitivity to oxazolone in BALB/c mice (ear edema, draining lymph node cells, auricle histology); type: in vivo
Method: Mice: BALB/c female mice, 8-10 week-old, delivered by the Institute of Laboratory Medicine, Łódź, Poland, were used for the study. The mice were fed a commercial, pelleted food and water ad libitum. The local ethics committee approved the study.
The test was performed according to Noonan et al. (Int. Arch. Allergy Appl. Immunol., 1978, 56, 523-532), with some modifications. Mice were shaved on the abdomen (2×2 cm area) and after 24 h 100 μl of 0.5% oxazolone in acetone was applied to the shaved area. The contact sensitivity reaction was elicited 5 days later by application of 50 μl of 1% oxazolone in acetone on both sides of the ears. Ear edema was measured 48 h later using a spring caliper. The results were presented as antigen-specific increase of ear thickness (i.e. the background (BG) ear thickness of mice was subtracted from the measured thickness).
In the experiment shown, the compound of formula I-A was applied topically as a 0.1% ointment on both sides of the ears (total volume of 50 μl per ear), at 24 h and 26 h after elicitation of the reaction with the second dose of oxazolone. Reference compounds were used in a similar fashion in the form of commercially available preparations.
Superficial parotid, mandibular and accessory mandibular lymph nodes were isolated, homogenized by pressing against a stainless screen into phosphate buffered solution (PBS), washed twice and re-suspended in PBS containing 0.2% Trypan blue. The total and nonviable cell numbers were determined using a light microscope and Bürker's hemocytometer. Mice treated only with the eliciting dose of antigen served as a background control.
The auricles were fixed in 4% formalin solution for 48 h, washed for 24 h, dehydrated in an alcohol series and embedded in paraffin. The paraffin blocks were sliced in a Micron HM310 microtome into 6 μm sections. The sections were stained with haematoxylin and eosin and with toluidine blue. The histological analysis was performed in a Nikon Eclipse 801 light microscope. On the histological slides containing cross-sections of auricles, the morphometric estimations of neutrophils, macrophages, lymphocytes and mast cells in the perivascular and subepithelial connective tissue were performed. The cells were counted on the area of 0.07 mm^2 at 400× magnification. Morphometric analysis was done with the aid of imagine software NIS-Elements (Nikon). For every examined group, 25 enumerations of neutrophils, macrophages, lymphocytes and mast cells were carried out.

Q: What does the source list for `O=C1C[C@H](Cc2ccccc2)NC(=O)[C@@H]2CCCN2C(=O)[C@@H]2CCCN2C(=O)[C@H](Cc2ccccc2)N1` [I-A] (cyclo(FPP[β3hF]))?
A: inhibition of the number of antibody-forming cells to SRBC [1]: more inhibitory at both doses than CsA; toxic effect on draining lymph node cells (proportions of viable and dead cells) ([2]; topical treatment, compared to control non-treated mice, FIG. 3): negligible toxic effect; number of cells in the draining lymph nodes ([2]; topical treatment, FIG. 2): decreased the numbers of lymphocytes in the draining lymph nodes to the level registered in non-sensitized mice; cell number and composition in the inflamed auricles (histology) ([2]; topical treatment, FIG. 4): almost entirely reversed the changes observed in control mice; inhibition of the ear edema (antigen-specific increase of ear thickness) ([2]; topical, I-A as 0.1% ointment, references as commercial preparations, 24 h and 26 h after elicitation, FIG. 1): about 80%
